Experimental data published in patent US5462926A (Biomeasure, Inc., priority 1993, dated 1995).
Like-named read-outs stand apart in the source and are kept apart here. Where a SMILES comes first, the peptide text is derived from it. Bridges are numbered along the chain shown (N, C = ends). [ ]: non-standard residue; d: D form. 2Nal = N[C@@H](Cc1ccc2ccccc2c1)C(=O)O; d2Nal = N[C@H](Cc1ccc2ccccc2c1)C(=O)O

Key:
somatostatin receptors = target: T1, somatostatin receptors (Rattus norvegicus, UniProt P30680); assay: Somatostatin membrane receptor assay, 125I-[Tyr11]SS-14, AR 42J cell membranes; assay type: binding; conditions: Cheng method; table prints no unit (b360 gives nM for a Table 4 value); read-out: affinity, 125I-[Tyr11]SS-14, AR 42J Cell Membranes (somatostatin receptors)
T1 construct: endogenous in cells; host or cells: rat AR 42J pancreatic acinar tumor cell membranes
T1 sequence (P30680 whole entry): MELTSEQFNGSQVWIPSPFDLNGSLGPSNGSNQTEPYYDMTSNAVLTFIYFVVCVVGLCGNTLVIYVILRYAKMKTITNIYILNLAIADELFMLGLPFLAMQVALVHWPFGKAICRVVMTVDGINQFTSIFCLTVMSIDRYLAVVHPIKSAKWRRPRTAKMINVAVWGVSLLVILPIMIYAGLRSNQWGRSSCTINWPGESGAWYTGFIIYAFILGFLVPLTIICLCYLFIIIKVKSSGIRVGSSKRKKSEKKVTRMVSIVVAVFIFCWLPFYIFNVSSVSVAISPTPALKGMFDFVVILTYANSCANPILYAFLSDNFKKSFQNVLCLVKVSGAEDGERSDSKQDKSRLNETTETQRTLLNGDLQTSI

mu opioid receptors = target: T2, mu opioid receptors (Rattus norvegicus, UniProt P33535); assay: Mu opioid membrane assay, [3H]DAGO, rat forebrain membranes; assay type: binding; conditions: Cheng method; unit inferred; read-out: affinity, [3H]DAGO, Rat Forebrain membranes (mu opioid receptors)
T2 construct: rat forebrain (TRH, mu and delta opioid membrane assays); from tissue; host or cells: rat forebrain membranes
T2 sequence (P33535 whole entry): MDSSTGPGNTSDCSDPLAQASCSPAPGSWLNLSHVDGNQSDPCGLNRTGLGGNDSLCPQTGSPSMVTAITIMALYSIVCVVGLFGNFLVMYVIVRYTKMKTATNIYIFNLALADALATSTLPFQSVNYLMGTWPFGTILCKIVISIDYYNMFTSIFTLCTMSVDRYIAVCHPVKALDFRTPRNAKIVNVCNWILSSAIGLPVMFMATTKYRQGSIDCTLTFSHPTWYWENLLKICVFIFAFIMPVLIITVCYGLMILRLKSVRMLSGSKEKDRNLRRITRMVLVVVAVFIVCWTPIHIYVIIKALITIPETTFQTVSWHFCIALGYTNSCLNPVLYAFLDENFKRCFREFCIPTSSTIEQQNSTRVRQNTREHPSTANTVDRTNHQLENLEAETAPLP

NMB receptor = target: T3, NMB receptor (Rattus norvegicus, UniProt P24053); assay: [3H]inositol phosphates in NMB-R transfected cells (alone or NMB-stimulated); assay type: cell-based; design: a full length NMB-preferring bombesin receptor clone generated from rat esophagus; expressed in transfected cells; conditions: NMB-R transfected cells; for [3H]IP, analog Alone (10 μM): analog 10 μM alone, control 13 ± 3; for [3H]IP, analog Plus NMB (3 nM): analog 10 μM plus NMB 3 nM, NMB without analog 186 ± 58
T3 sequence (P24053 1-390): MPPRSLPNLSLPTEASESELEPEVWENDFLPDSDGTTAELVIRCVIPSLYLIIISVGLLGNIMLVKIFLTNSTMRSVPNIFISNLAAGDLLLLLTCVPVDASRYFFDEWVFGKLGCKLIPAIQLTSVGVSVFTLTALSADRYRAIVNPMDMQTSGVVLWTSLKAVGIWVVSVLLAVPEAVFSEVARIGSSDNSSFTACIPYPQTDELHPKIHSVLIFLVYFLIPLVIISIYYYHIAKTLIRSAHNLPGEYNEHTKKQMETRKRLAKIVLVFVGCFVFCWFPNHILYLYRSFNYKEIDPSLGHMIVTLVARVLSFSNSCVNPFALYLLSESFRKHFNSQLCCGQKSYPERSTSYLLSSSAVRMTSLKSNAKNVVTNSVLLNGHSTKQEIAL
Protocol: As described previously [Wada, E., et al. Neuron 6:421 (1991)], BALB 3T3 cells expressing a stably transfected rat NMB receptor (NMB-R transfected cells) were obtained using calcium phosphate precipitation of a full length NMB-preferring bombesin receptor clone generated from rat esophagus and subcloned into a modified version of the pCD2 plasmid. Cells were passaged every 3-4 days at confluence, using 0.1% trypsin in 1 mM EDTA. Rat glioblastoma C-6 tumor cells were maintained similarly and were passaged weekly at confluence. Both cell lines were cultured at 37° C. in a 5% CO2 atmosphere. Rat AR 42J pancreatic acinar cells were cultured in Dulbecco's modified Eagle's medium (DMEM) without antibiotics and supplemented with 10% (vol/vol) fetal calf serum. The incubation atmosphere consisted of 10% CO2 -90% humidified air at 37° C.
Measurement of phosphoinositides
Total phosphoinositides in C-6 cells and in NMB-R transfected cells were determined as described previously, with minor modifications [Benya, R. V. et al. Mol. Pharmacol. 42:1058 (1992); and Wang, L-H. et al. Biochem. Jo 286:641 (1992)]. Cells were grown to confluence in 24-well plates and then loaded with 100 μCi/ml myo-[2-^3 H]inositol in Dulbecco's modified essential medium with 2% fetal bovine serum at 37° C. for 48 hrs. Cells were washed and incubated in phosphoinositide buffer (standard buffer additionally containing 10 mM LiCl, 20 mM HEPES, 2 mM CaCl2, 2% BSA, and 1.2 mM MgSO4) for 15 min and then for 60 min at 37° C. with agonists at various concentrations or with 3 nM NMB (a half-maximal effective concentration) and possible antagonists at different concentrations. Reactions were halted using ice-cold 1% HCl in methanol, and the inositol phosphates (IP) were isolated as described previously [Bologna, M. et al. Cancer 63:1714 (1989); and Endo, T. et al. J. Endocrinolo 131:313 (1991)]. Briefly, after loading of the anion exchange column, free [^3 H]glycerophosphorylinositol was removed by washing with 5 mM disodium tetraborate in 60 mM sodium formate. Total [^3 H]inositol phosphates were then eluted using 100 mM formic acid in 1.0M ammonium formate as described previously [Benya, R. V. et al. Mol. Pharmacol. 42:1058 (1992); and Wang, L-H. et al. Biochem. J. 286:641 (1992 )].

GRP receptor = GRP receptor (Rattus norvegicus, UniProt P52500); assay: GRP membrane receptor assay, 125I-[Tyr4]Bn, AR 42J cell membranes; assay type: binding; design: endogenous in cells; host or cells: rat AR 42J pancreatic acinar tumor cell membranes; conditions: read-out: affinity, 125I-[Tyr4]Bn, AR 42J Cell Membranes (GRP receptors); Cheng method; unit inferred
Chain of GRP receptor (P52500 whole entry): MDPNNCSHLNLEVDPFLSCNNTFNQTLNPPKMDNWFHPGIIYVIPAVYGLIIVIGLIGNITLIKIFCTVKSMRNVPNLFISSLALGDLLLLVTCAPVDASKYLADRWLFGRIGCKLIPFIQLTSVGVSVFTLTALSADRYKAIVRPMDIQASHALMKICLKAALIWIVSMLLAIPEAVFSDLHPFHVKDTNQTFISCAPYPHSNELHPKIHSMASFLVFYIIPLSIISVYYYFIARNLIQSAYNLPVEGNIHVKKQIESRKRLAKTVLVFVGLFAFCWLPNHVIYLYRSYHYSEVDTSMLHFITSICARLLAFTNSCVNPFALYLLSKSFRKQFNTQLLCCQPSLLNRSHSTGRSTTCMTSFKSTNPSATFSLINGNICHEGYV

[1] = 3 nM NMB, read-out: IC50 NMB-stimulated [3H]IP, NMB Receptor, Transfected Cells

| Compound | Ki (somatostatin receptors) [nM] | Ki (mu opioid receptors) [nM] | IC50 (NMB receptor; [1]) [µM] | [3H]IP, analog Alone (10 μM) (NMB receptor) [dym × 10^3] | [3H]IP, analog Plus NMB (3 nM) (NMB receptor) [dym × 10^3] | Ki (GRP receptor) [nM] | IC50 (NMB receptor; 3 nM NMB, read-out: IC50 NMB-stimulated [3H]IP, Transfected Cells (values in μM)) [µM] | effect at 10 μM on NMB-stimulated increase in [3H]IP (NMB receptor; 10 μM, 3 nM NMB) |
| --- | --- | --- | --- | --- | --- | --- | --- | --- |
| CC(C)[C@@H]1NC(=O)[C@H](CCCCN)NC(=O)[C@@H](Cc2c[nH]c3ccccc23)NC(=O)[C@H](Cc2ccc(O)cc2)NC(=O)[C@@H](NC(=O)[C@H](N)Cc2c[nH]c3ccccc23)CSSC[C@@H](C(=O)N[C@@H](Cc2ccc3ccccc3c2)C(N)=O)NC1=O [Analog #12, H2 -D-Trp-Cys-Tyr-D-Trp-Lys-Val-Cys-Nal-NH2] (H-[dW]CY[dW]KVC[2Nal]-NH2; disulfide 2-7) | 3.1 ± 1.6 | > 10000 | 4.69 ± 0.927 | 9 ± 2 | 43 ± 2 | 2100 ± 150 |  |  |
| CC(C)[C@@H]1NC(=O)[C@H](CCCCN)NC(=O)[C@@H](Cc2c[nH]c3ccccc23)NC(=O)[C@H](Cc2ccc(O)cc2)NC(=O)[C@@H](NC(=O)[C@H](N)Cc2ccccc2)CSSC[C@@H](C(=O)N[C@@H](Cc2ccc3ccccc3c2)C(N)=O)NC1=O [Analog #4, H2 -D-Phe-Cys-Tyr-D-Trp-Lys-Val-Cys-Nal-NH2] (H-[dF]CY[dW]KVC[2Nal]-NH2; disulfide 2-7) | 0.24 ± 0.13 | 650 ± 130 | 3.76 ± 0.568 | 13 ± 1 | 33 ± 4 | 2000 ± 150 |  |  |
| CC(C)[C@@H]1NC(=O)[C@H](CCCCN)NC(=O)[C@@H](Cc2c[nH]c3ccccc23)NC(=O)[C@H](Cc2ccc(O)cc2)NC(=O)[C@@H](NC(=O)[C@@H](N)Cc2ccc3ccccc3c2)CSSC[C@@H](C(=O)N[C@H](Cc2ccc3ccccc3c2)C(N)=O)NC1=O [Analog #9, H2 -Nal-Cys-Tyr-D-Trp-Lys-Val-Cys-D-Nal-NH2] (H-[2Nal]CY[dW]KVC[d2Nal]-NH2; disulfide 2-7) | 2.8 ± 0.7 | 1160 | 4.41 ± 0.451 | 8 ± 2 | 28 ± 6 | 1540 ± 180 |  |  |
| CC(C)[C@@H]1NC(=O)[C@H](CCCCN)NC(=O)[C@@H](Cc2c[nH]c3ccccc23)NC(=O)[C@H](Cc2ccc(O)cc2)NC(=O)[C@@H](NC(=O)[C@H](N)Cc2ccc3ccccc3c2)CSSC[C@H](C(=O)N[C@@H](Cc2ccc3ccccc3c2)C(N)=O)NC1=O [Analog #11, H2 -D-Nal-Cys-Tyr-D-Trp-Lys-Val-D-Cys-Nal-NH2] (H-[d2Nal]CY[dW]KV[dC][2Nal]-NH2; disulfide 2-7) | 48 ± 3 | > 10000 | 1.43 ± 0.119 | 10 ± 1 | 7 ± 4 | 7620 ± 1260 | 1.2 to 1.8 | completely inhibited |
